From paper PMC6370762, “Endogenous pore-forming protein complex targets acidic glycosphingolipids in lipid rafts to initiate endolysosome regulation” (Communications Biology, 2019)

Each substance was assayed against BmTFF3 (Bombina maxima, UniProt B2BRT2). Settings: PBS pH 7.4, 37 °C; 1:1 global fit; also bound on lipid overlay strips.
BmTFF3, sequence (B2BRT2 21-166 limits assumed): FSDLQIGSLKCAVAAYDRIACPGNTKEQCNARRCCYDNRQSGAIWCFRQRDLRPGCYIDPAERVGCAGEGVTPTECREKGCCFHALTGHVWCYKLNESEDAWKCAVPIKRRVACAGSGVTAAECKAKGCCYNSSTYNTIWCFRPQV

Substance | Kd
sulfatides | ~62.3 nM

These substances were tested against T1, βγ-CAT. Settings: PBS pH 7.4, 37 °C; 1:1 global fit; gangliosides bind the BmALP1 subunit.
T1 construct: gene BmALP1

Substance | Kd
GD1a | 76.3 nM
GD1b | 521 nM
GD3 | 46.7 nM
GM1 | 30.5 nM
GM2 | 53.7 nM
GM3 | 10.2 nM
GM4 | 46.3 nM
GT1b | 527 nM

The substances below were run against T1, βγ-CAT. Settings: PBS pH 7.4, 37 °C; 1:1 global fit; site on BmTFF3 subunit.

Substance | Kd
sulfatides | 65.5 nM
